These results are taken from ChEMBL document CHEMBL1201862, “PubChem BioAssay data set” (2004).

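How tested: cells in 96-well plates exposed to compound for 48 hours at five concentrations. The concentration for 50% growth inhibition is given as GI50.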 Calls of active or inactive are those of the source. No stated cut-off is given here; in the data, active = GI50 up to about 1.1 µM and inactive = higher.

Test systems include MCF7; HOP-92; HOP-62; UO-31; UACC-62; RXF 393; CAKI-1; MDA-N; MDA-MB-435; A549; NCI-H226; SF-268; EKVX; HCT-15; SN12C; SK-MEL-5; MOLT-4; K562; SK-MEL-28.
Holding throughout (assay): growth of human tumour cells (NCI), 48 h

With `Cc1nn(-c2ccccc2)c2c1C(c1ccc(Cl)cc1)NC(=S)N2` (configuration not stated), the GI50 in the assay on MCF7 was 28.4 µM (inactive); in the assay with HOP-92, 7.18 µM (inactive); in the assay with HOP-62 it was 16.1 µM (inactive); in the assay with UO-31, 15 µM (inactive); with UACC-62, 22.3 µM (inactive); in the assay with RXF 393, 15.7 µM (inactive). The GI50 in the assay on CAKI-1 is 27.2 µM (inactive); in the assay with MDA-N it was 29.4 µM (inactive); with MDA-MB-435, 21.5 µM (inactive); in the assay with A549, 24.6 µM (inactive); with NCI-H226, 25.9 µM (inactive); in the assay on SF-268, 25.8 µM (inactive). Further, the GI50 was 25.8 µM (inactive) with EKVX; 17.5 µM with HCT-15; 19.1 µM (inactive) in the assay with SN12C; 20.3 µM (inactive) in the assay with SK-MEL-5; 38.6 µM (inactive) in the assay with MOLT-4; 36.1 µM (inactive) in the assay with K562.

For `NC(=O)c1ncn(C2CCC(CP(=O)(O)O)C2)c1N` (configuration not stated), the GI50 in the assay with MCF7, in the assay on HOP-92, in the assay with HOP-62, in the assay with UO-31, in the assay with UACC-62 and in the assay on RXF 393 was > 100 µM (inactive) throughout. The GI50 in the assay with CAKI-1, in the assay on MDA-N, with MDA-MB-435, in the assay with A549, in the assay on NCI-H226 and in the assay with SF-268 was > 100 µM (inactive) each time. In addition, the GI50 with EKVX was > 100 µM (inactive); in the assay on HCT-15, > 100 µM; in the assay on SN12C it was > 100 µM (inactive); in the assay on SK-MEL-5 it was > 100 µM (inactive); with MOLT-4, > 100 µM (inactive); with SK-MEL-28, > 100 µM (inactive).

For `NC1(P(=O)(O)O)CCCCC1`, the GI50 with MCF7, in the assay with HOP-92, in the assay with HOP-62, with UACC-62, with RXF 393 and in the assay with CAKI-1 was > 100 µM (inactive) in each case. The GI50 with MDA-N, in the assay with MDA-MB-435, with A549, with NCI-H226, with SF-268 and in the assay with EKVX was > 100 µM (inactive) each time. Also, the GI50 was > 100 µM in the assay on HCT-15; > 100 µM (inactive) in the assay on SN12C; > 100 µM (inactive) in the assay on SK-MEL-5; > 100 µM (inactive) with MOLT-4; > 100 µM (inactive) in the assay on SK-MEL-28; > 100 µM (inactive) with K562.

For the compound `CC12CCC(C(=O)O1)C(C)(C)O2` (configuration not stated), the GI50 in the assay on MCF7, in the assay on HOP-92, in the assay with HOP-62, in the assay with UO-31, with UACC-62 and with RXF 393 was > 100 µM (inactive) throughout. In addition, the GI50 in the assay with CAKI-1, with MDA-N, with MDA-MB-435, in the assay with A549, with NCI-H226 and with SF-268 was > 100 µM (inactive) in each case. Besides, the GI50 with EKVX is > 100 µM (inactive); in the assay with HCT-15 it was > 100 µM; in the assay with SN12C, > 100 µM (inactive); in the assay on MOLT-4, > 100 µM (inactive); with SK-MEL-28, > 100 µM (inactive); with K562 it was > 100 µM (inactive).

Regarding `N=c1oc2ccc([N+](=O)[O-])cc2cc1C(=O)Nc1ccccn1`, the GI50 with MCF7 is 12.2 µM (inactive); in the assay with HOP-92 it was 71.9 µM (inactive); in the assay with HOP-62 it was 25.3 µM (inactive); in the assay with UACC-62, 34.2 µM (inactive); in the assay with RXF 393, 31.2 µM (inactive); with CAKI-1 it was > 100 µM (inactive). Also, the GI50 with MDA-N is 49.2 µM (inactive); in the assay with MDA-MB-435, 37.6 µM (inactive); in the assay with A549, > 100 µM (inactive); in the assay with NCI-H226, 71.9 µM (inactive); in the assay on SF-268 it was 34.8 µM (inactive); in the assay with EKVX, 34.6 µM (inactive). In addition, the GI50 with HCT-15 was 44.3 µM; with SN12C, 72.6 µM (inactive); in the assay with SK-MEL-5, 93.5 µM (inactive); with MOLT-4, > 100 µM (inactive); in the assay with SK-MEL-28 it was 28.8 µM (inactive); in the assay on K562 it was > 100 µM (inactive).

For `CCCC(=O)Nc1cc(/C=C/C(=O)N2CC(CCl)c3c2cc([N+](=O)[O-])c2ccccc32)n(C)c1` (configuration not stated), the GI50 with MCF7 is 13.8 µM (inactive); with HOP-92, > 100 µM (inactive); in the assay on HOP-62 it was > 35.1 µM (inactive); in the assay on UO-31 it was > 75.3 µM (inactive); in the assay with UACC-62 it was 8.38 µM (inactive); with RXF 393, 59.4 µM (inactive). For the same compound, the GI50 is 47.1 µM (inactive) in the assay with CAKI-1; > 100 µM (inactive) with MDA-N; > 100 µM (inactive) in the assay with MDA-MB-435; 8.89 µM (inactive) in the assay with A549; > 100 µM (inactive) with NCI-H226; > 100 µM (inactive) in the assay with SF-268. Moreover, the GI50 was > 4.65 µM in the assay on HCT-15; > 100 µM (inactive) in the assay on SN12C; > 47.3 µM (inactive) in the assay on SK-MEL-5; 3.01 µM (inactive) in the assay with MOLT-4; > 100 µM (inactive) in the assay with SK-MEL-28; 0.738 µM (active) with K562.

On to `COc1c(C(C)(C)C)cc(CC2C(=O)C=CC2=O)cc1C(C)(C)C`, for which the GI50 in the assay on MCF7 was 16.7 µM (inactive); in the assay with HOP-92 it was 16.1 µM (inactive); with HOP-62, 18.4 µM (inactive); with UO-31 it was 8.61 µM (inactive); in the assay on UACC-62 it was 17.9 µM (inactive); in the assay with RXF 393 it was 14.8 µM (inactive). Further, the GI50 is 15.3 µM (inactive) in the assay with CAKI-1; 15.2 µM (inactive) with MDA-N; 15.3 µM (inactive) with MDA-MB-435; 24.3 µM (inactive) with A549; 19.1 µM (inactive) with SF-268; 17.7 µM (inactive) in the assay with EKVX. The GI50 is 14.1 µM in the assay on HCT-15; 26.5 µM (inactive) in the assay on SN12C; 17.3 µM (inactive) with SK-MEL-5; 2.93 µM (inactive) in the assay on MOLT-4; 16.6 µM (inactive) in the assay with SK-MEL-28; 4.93 µM (inactive) in the assay on K562.

In the case of `CC(C)(C)OC(=O)N1C(c2cccnc2)=CC[C@H]2C3CC=C(c4cccnc4)[C@@]3(C)CC[C@@H]21` (some centres not stated), the GI50 in the assay on MCF7 is 2.81 µM (inactive); in the assay on HOP-92, 2.52 µM (inactive); with HOP-62 it was 2.79 µM (inactive); with UO-31, 4.95 µM (inactive); with UACC-62, 2.61 µM (inactive); in the assay on RXF 393 it was 3.32 µM (inactive). Moreover, the GI50 in the assay on CAKI-1 is 6.55 µM (inactive); in the assay on MDA-N it was 3.05 µM (inactive); in the assay with MDA-MB-435, 2.13 µM (inactive); in the assay with A549, 3.37 µM (inactive); in the assay on NCI-H226, 3.56 µM (inactive); in the assay on SF-268, 2.9 µM (inactive). Further, the GI50 was 2.11 µM (inactive) in the assay on EKVX; 3.52 µM in the assay with HCT-15; 3.67 µM (inactive) in the assay with SN12C; 2.07 µM (inactive) in the assay with SK-MEL-5; 2.54 µM (inactive) in the assay on MOLT-4; 0.52 µM (active) with K562.

As to `Cc1nn(-c2ccccc2)c2c1CC(=O)Nc1ccccc1-2`, the GI50 with MCF7 was 0.372 µM (active); in the assay with HOP-92, 4.18 µM (inactive); in the assay with HOP-62, 3.15 µM (inactive); with UO-31, 2.94 µM (inactive); in the assay on UACC-62, 0.521 µM (active); in the assay with RXF 393, 0.313 µM (active). In addition, the GI50 was 2.82 µM (inactive) in the assay with CAKI-1; 0.187 µM (active) with MDA-N; 0.204 µM (active) with MDA-MB-435; 1.61 µM (inactive) in the assay on A549; 5.01 µM (inactive) with NCI-H226; 1.63 µM (inactive) with SF-268. For the same compound, the GI50 with EKVX is 9.66 µM (inactive); with HCT-15, 0.618 µM; in the assay with SK-MEL-5, 0.379 µM (active); in the assay on MOLT-4 it was 0.522 µM (active); in the assay with SK-MEL-28, 0.839 µM (active); in the assay on K562, 0.412 µM (active).

`COCn1cnc2c(=O)nc(SC)n(-c3ccccc3)c21`: the GI50 in the assay on MCF7, in the assay with HOP-92, with HOP-62, in the assay with UO-31, in the assay with UACC-62 and in the assay on RXF 393 was > 100 µM (inactive) each time. In addition, the GI50 with CAKI-1, with MDA-N, in the assay with MDA-MB-435, with A549, in the assay on NCI-H226 and with SF-268 was > 100 µM (inactive) in each case. Moreover, the GI50 with EKVX was > 100 µM (inactive); with HCT-15, > 100 µM; with SN12C it was > 100 µM (inactive); in the assay on SK-MEL-5, > 100 µM (inactive); with MOLT-4 it was > 100 µM (inactive); in the assay with K562, > 100 µM (inactive).

As for `CSc1ncc2c(n1)-c1ccccc1OC2NC1CC1` (configuration not stated), the GI50 with MCF7 is 58.3 µM (inactive); with HOP-92 it was 43.9 µM (inactive); in the assay on UO-31 it was 33.2 µM (inactive); in the assay with UACC-62 it was 25.8 µM (inactive); with RXF 393 it was > 100 µM (inactive); in the assay on CAKI-1 it was 29.6 µM (inactive). In addition, the GI50 was > 100 µM (inactive) with MDA-N; > 100 µM (inactive) in the assay on MDA-MB-435; > 100 µM (inactive) with A549; 25.5 µM (inactive) in the assay with NCI-H226; 92.7 µM (inactive) in the assay on SF-268; 51.2 µM (inactive) in the assay with EKVX. Moreover, the GI50 in the assay on HCT-15 is 40.4 µM; in the assay with SN12C, 63.5 µM (inactive); in the assay on SK-MEL-5 it was 78.3 µM (inactive); in the assay on MOLT-4 it was 37.2 µM (inactive); in the assay with K562, 54 µM (inactive).
